The text below walks through data of US9388216B2, “Methods of treating reproductive cancer” (Medical Research Council, priority 2006, dated 2016).

Non-standard residues stand in square brackets, D forms with d. pGlu = O=C1CC[C@@H](C(=O)O)N1

The subject of series [1] is GnRH-induced PARP cleavage (caspase 3 activation) in HEK293/rGnRHR cells. The experiment in a line: Inhibition of GnRH-induced PARP cleavage by chemical inhibitors. To be noted: for remaining GnRH I-induced PARP cleavage, mean±S.E.M.: 100 nM GnRH I plus inhibitor; for remaining GnRH I-induced PARP cleavage, mean±S.E.M. / remaining GnRH II-induced PARP cleavage, mean±S.E.M. / effect on GnRH-induced apoptosis / caspase 3 activation (in words): 48 h, complete medium; for remaining GnRH II-induced PARP cleavage, mean±S.E.M.: 100 nM GnRH II plus inhibitor.
Protocol: Cells were maintained in Dulbecco's modified Eagles medium (DMEM) (Sigma) supplemented with 10% fetal bovine serum, 2% glutamine and 1% penicillin (10,000 units/ml)/streptomycin (10,000 μg/ml) at 37° C. in a humidified 5% CO2 atmosphere. Cell treatments were performed at 37° C. in serum-containing medium with varying molecule concentrations and time periods, as indicated in the figure legends.
After stimulation of cells growing on 6-well plates, cell monolayers were placed on ice, washed twice in ice-cod Dulbecco's phosphate buffered saline (DPBS), and lysed in a NP-40-based solubilisation buffer (5 mM HEPES, 0.25 M NaCl, 0.5% NP-40, 10% glycerol, 2 mM EDTA pH8.0, 1 mM PMSF, 0.01 mg/ml leupeptin, 1 mM Na2VO4). Solubilised lysates were clarified by centrifugation at 15,000 rpm for 15 min. A 50 μl-aliquot of clarified whole-cell lysate was mixed with an equal volume of 2× Laemmli sample buffer, resolved by SDS-polyacrylamide gel electrophoresis (SDS-PAGE) and transferred to a PVDF membrane (NEN Life Sciences/PerkinElmer Life and Analytical Sciences; Beaconsfield, Bucks, UK). These membranes were blocked in a 4% bovine serum albumin, 50 mM Tris-HCl, pH 7.0, 0.05% Tween-20 and 0.05% NP-40 blocking solution. […] Apoptosis was assessed by incubating the PVDF membranes with a 1:1,000 dilution of anticleaved PARP rabbit polyclonal antibody at 4° C. with gentle shaking overnight. […] An alkaline phosphatase conjugated IgG (Sigma) was employed as a secondary antibody in all cases. Visualization of proteins was performed using enzyme-linked chemifluoresence (Amersham Biosciences Ltd.; St. Giles, Bucks, UK) and quantified using a Typhoon 9400 Phosphorimager.
Then, cells were lysed and a western blot with specific anti-cleaved PARP antibody was carried out as explained before.

The target of series [2] is T1, rat GnRH receptor (Rattus norvegicus, UniProt P30969).
T1 construct: expressed in transfected cells
T1 sequence (P30969 1-327): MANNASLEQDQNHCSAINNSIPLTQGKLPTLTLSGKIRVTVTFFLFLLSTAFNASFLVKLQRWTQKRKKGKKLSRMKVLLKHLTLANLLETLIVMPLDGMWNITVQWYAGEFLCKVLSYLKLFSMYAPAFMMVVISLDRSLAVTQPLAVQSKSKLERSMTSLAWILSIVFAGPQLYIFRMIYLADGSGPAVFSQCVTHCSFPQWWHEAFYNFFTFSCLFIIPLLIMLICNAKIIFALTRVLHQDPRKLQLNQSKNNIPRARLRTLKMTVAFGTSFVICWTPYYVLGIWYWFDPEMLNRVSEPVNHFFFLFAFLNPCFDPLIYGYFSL
The experiment in a line: Competition binding assay with [125I][His5,D-Trp6]GnRH I in HEK293/rGnRHR cells. The protocol: Cell monolayers growing on 12-well PLL-coated plates were incubated in binding buffer (10 mM HEPES, 1% BSA in DMEM) containing […] radioligand (100,000 cpm) and 10-6-10-12 M unlabelled ligand. Equilibrium was reached after incubation for 4 h at 4° C. Cells were then lysed in 0.1 M NaOH and the radioactivity in the extract was measured in a 1261 Wallac MultiGamma counter.
(§1) Bar graphs and curves were obtained using Prism 3.0 (GraphPad Software, Inc.: San Diego, Calif., USA). IC50 and EC50 values were determined by non-linear regression analysis. Curves were best-fitted to a one-site model. […] Values were normalised as specified in the figure legends.

Series [3] addresses T1, rat GnRH receptor. The experiment in a line: Accumulation of total inositol phosphates (PLCβ activation) in HEK293/rGnRHR cells. Type of series: cell-based. How it is done: HEK293 cells stably expressing the GnRH receptor growing on 12-well PLL-coated plates were pre-labelled with 1 μCi/ml myo-[H3]inositol (Amersham) in inositol-free DMEM (Sigma) for 48 h. On the day of the experiment, cells were washed with assay buffer (140 mM NaCl, 20 mM HEPES, 8 mM glucose, 4 mM KCl, 1 mM MgCl2, 1 mM CaCl2, 1 mg/ml BSA), pre-incubated with 10 mM LiCl (in assay buffer) for 30 min, and stimulated with different concentrations of the peptides (in the same buffer) for 1 h at 37° C. Incubations were terminated by removing the culture medium and lysing the cells in ice cold 10 mM formic acid for 30 min. Inositol phosphates were extracted by chromatography with an anion exchange resin (AG® 1-X8, Bio-Rad) using 1 M ammonium formate and 0.1 M formic acid. Liquid scintillant was added to the final eluate and [3H]inositol phosphates were measured in the β-counter.
as §1

Another series deals with T2, human GnRH receptor (Homo sapiens, UniProt P30968).
T2 construct: expressed in transfected cells
T2 sequence (P30968 1-328): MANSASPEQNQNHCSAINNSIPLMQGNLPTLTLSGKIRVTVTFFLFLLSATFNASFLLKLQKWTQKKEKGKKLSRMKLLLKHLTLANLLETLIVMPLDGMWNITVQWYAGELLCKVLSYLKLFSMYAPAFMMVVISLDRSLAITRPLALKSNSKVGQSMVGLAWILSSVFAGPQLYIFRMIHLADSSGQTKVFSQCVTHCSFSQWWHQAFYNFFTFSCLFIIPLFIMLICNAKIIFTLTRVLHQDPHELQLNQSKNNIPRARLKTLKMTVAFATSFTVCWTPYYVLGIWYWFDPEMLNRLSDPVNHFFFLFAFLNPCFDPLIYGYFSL
The experiment in a line: Accumulation of total inositol phosphates (PLCβ activation) in HEK293/hGnRHR cells. It is filed as cell-based.

The test system of a further series is HEK293/rGnRHR cells. The experiment in a line: Cell growth inhibition (viable cell number after 5 days of continuous treatment) in HEK293/rGnRHR cells. Type of series: cell-based, rat. Conditions: for fold more potent than GnRH I to induce cell death / inhibit cell growth / antiproliferative/apoptotic potency compared with GnRH I (in words): rat receptor; for antiproliferative/apoptotic potency compared with GnRH I (in words): 5 days. The protocol:
(§2) For the first method, HEK293 cells expressing various GnRH receptor constructs were seeded into 12-well PLL-coated plates at 50,000 cells (in 1 ml)/well and cultured with continuous GnRH exposure for five days, adding fresh peptide every day. Trypan Blue-excluding cells were then counted with a haemocytometer. For the second method, cells were seeded into 96-well plates at 5,000 cells (in 100 μl)/well and treated exactly as described before. 10 μl WST-1 reagent (Roche Diagnostics Ltd.; Lewes, East Sussex, UK) was added directly to each well and, after 3 h at 37° C., absorbance was read at 450 nm (with a reference at 690 nm) against a background control as blank using a microplate ELISA reader.
as §1
(§3) Antiproliferation/apoptosis was estimated by determining cell number after five days of continuous exposure to the peptides. In parallel, this response was compared to the classical Gq coupled-PLCβ activation induced by GnRH peptides, as measured by the very well characterized inositol phosphates accumulation protocol. Both outputs were determined in two HEK293 cell lines; one expressing the rat receptor and the other expressing the human receptor. The human cell line was included in the study because this species may be clinically more relevant and the very low receptor expression may better reflect the in vivo tumoural state. In fact, due to poor binding, the precise affinity of the analogues on this cell line could not be determined.

The next series deals with HEK293/hGnRHR cells. The experiment in a line: Cell growth inhibition (viable cell number after 5 days of continuous treatment) in HEK293/hGnRHR cells. Type of series: cell-based, human. To be noted: for fold more potent than GnRH I to induce cell death / inhibit cell growth / antiproliferative/apoptotic potency compared with GnRH I (in words): human receptor; for antiproliferative/apoptotic potency compared with GnRH I (in words): 5 days. How it is done:
as §2, §1, §3

Where [4] appears, read: HEK293/human GnRH receptor cells.

For `COc1ccc2c(c1)c(C1=C(c3c[nH]c4ccccc34)C(=O)NC1=O)cn2CCCN(C)C` [Gö 6983], in series [1], the “remaining GnRH I-induced PARP cleavage, mean±S.E.M.” value stood at 47±22; the “remaining GnRH II-induced PARP cleavage, mean±S.E.M.” value is on record as 35±18; the “effect on GnRH-induced apoptosis / caspase 3 activation (in words)” value is given as “clearly more efficient than Ro-31-8220”. The “extent of the effect upon GnRH-stimulated apoptosis” value in series [1] (discussion) is given as roughly 40%.
For `NCCOB(c1ccccc1)c1ccccc1` [2-APB, 2-aminoethyl-diphenilborinate], in series [1] (inhibitor alone), the “PARP cleavage caused by the inhibitor itself (cytotoxicity)” value is given as “significant PARP cleavage by themselves”.
For the compound “[Tyr8]GnRH I: GnRH I with Arg8 substituted by Tyr8 of GnRH II (QHWSYGLYPG; Gonadoliberin-1; UniProt P01148 24-33, looked up, variant R8Y)”, in the series with rat GnRH receptor [2], the “affinity compared with GnRH I (in words)” value is reported as “very low affinity”. Also, the “fold less potent to stimulate PLCβ compared to GnRH I” value with rat GnRH receptor [3] was 27.3 fold. In addition, the “fold less potent to stimulate PLCβ relative to GnRH I” value with human GnRH receptor is reported as 23.7 fold. The “fold more potent to suppress cell growth relative to GnRH I” value in the series on HEK293/rGnRHR cells (range across rat and human receptor cell lines (discussion)) was 4-11 fold. The “fold more potent than GnRH I to induce cell death / inhibit cell growth” value with HEK293/rGnRHR cells is recorded as 4.2 fold; in the series on HEK293/hGnRHR cells, 10.7 fold. For the same compound, the “antiproliferative effect compared with inositol phosphate production, selectivity (in words)” value in the series on HEK293/hGnRHR cells (setting [4]) was “most selective antiproliferative/apoptotic analogue”.
Consider PTX: Gi inhibitor from Biomol, for which, in series [1], the “effect on GnRH-induced apoptosis / caspase 3 activation (in words)” value was “not having any effect”.
For the compound `O=C1c2ccccc2-c2n[nH]c3cccc1c23` [JNKII inhibitor], in series [1], the “remaining GnRH I-induced PARP cleavage, mean±S.E.M.” value was determined as 84±29 and the “remaining GnRH II-induced PARP cleavage, mean±S.E.M.” value is listed as 72±22.
On to `CC(C)(C)n1nc(-c2ccc(Cl)cc2)c2c(N)ncnc21` [PP2], for which, in series [1], the “remaining GnRH I-induced PARP cleavage, mean±S.E.M.” value stood at 20±4 and the “remaining GnRH II-induced PARP cleavage, mean±S.E.M.” value was found to be 18±2.
As for `Cn1cc(C2=C(c3cn(CCCSC(=N)N)c4ccccc34)C(=O)NC2=O)c2ccccc21` [Ro-31-8220], the “effect on GnRH-induced apoptosis / caspase 3 activation (in words)” value in series [1] is “no effect”.
On to “[His5,Trp7]GnRH I: double mutant GnRH I incorporating His5 and Trp7 of GnRH II ([pGlu]HWSHGWRPG-NH2; ends and bridges not checked; UniProt P01148 24-33, looked up, variant Y5H L7W)”, for which the “antiproliferative/apoptotic potency compared with GnRH I (in words)” value in the series on HEK293/rGnRHR cells and in the series on HEK293/hGnRHR cells was “improved antiproliferative/apoptotic capacity” each time.
Regarding `COc1cccc(-c2cc(=O)c3ccccc3o2)c1N` [PD98059], in series [1], the “remaining GnRH I-induced PARP cleavage, mean±S.E.M.” value is 17±6 and the “remaining GnRH II-induced PARP cleavage, mean±S.E.M.” value is given as 14±13.
The like results for `CO[C@H]1[C@@H](OC)C[C@H](C)[C@@H](OC)C2=CC(=O)C=C(NC(=O)/C(C)=C/C=C\[C@H](OC)[C@@H](OC(N)=O)/C(C)=C/[C@@H]1C)C2=O` [herbimycin A] were, in that order, 9±1 and 41±4.
Regarding `COc1cc2ncnc(Nc3cccc(Cl)c3)c2cc1OC` [AG1478], in series [1], the “remaining GnRH I-induced PARP cleavage, mean±S.E.M.” value stood at 13±10 and the “remaining GnRH II-induced PARP cleavage, mean±S.E.M.” value worked out at 18±11.
With “[Trp7,Tyr8]GnRH I: double mutant GnRH I incorporating Trp7 and Tyr8 of GnRH II ([pGlu]HWSYGWYPG-NH2; ends and bridges not checked; UniProt P01148 24-33, looked up, variant L7W R8Y)”, the “affinity compared with GnRH I (in words)” value with rat GnRH receptor [2] is “almost identical to those of [Tyr8]GnRH I”. For the same compound, the “potency to stimulate inositol phosphates accumulation / PLCβ activation compared with GnRH I (in words)” value in the series with rat GnRH receptor [3] and in the series with human GnRH receptor was “almost identical to those of [Tyr8]GnRH I” each time. The “antiproliferative/apoptotic potency compared with GnRH I (in words)” value with HEK293/rGnRHR cells and in the series on HEK293/hGnRHR cells was “almost identical to those of [Tyr8]GnRH I” in each case.
In the case of “[His5]GnRH I: GnRH I with Tyr5 substituted by His5 of GnRH II (QHWSHGLRPG; Gonadoliberin-1; UniProt P01148 24-33, looked up, variant Y5H)”, the “affinity compared with GnRH I (in words)” value in the series with rat GnRH receptor [2] is recorded as “higher affinity than GnRH I”. Moreover, the “potency to stimulate inositol phosphates accumulation / PLCβ activation compared with GnRH I (in words)” value with rat GnRH receptor [3] and in the series with human GnRH receptor was “better potencies” throughout. Besides, the “antiproliferative/apoptotic potency compared with GnRH I (in words)” value in the series on HEK293/rGnRHR cells and with HEK293/hGnRHR cells was “better potencies” each time. In the series with HEK293/hGnRHR cells (setting [4]), the “antiproliferative potency (in words)” value was “most potent antiproliferative/apoptotic agent ever described”.
For “[His5,Tyr8]GnRH I: double mutant GnRH I incorporating His5 and Tyr8 of GnRH II ([pGlu]HWSHGLYPG-NH2; ends and bridges not checked; UniProt P01148 24-33, looked up, variant Y5H R8Y)”, the “affinity compared with GnRH I (in words)” value with rat GnRH receptor [2] is “features intermediate between GnRH I and [Tyr8]GnRH I”. For the same compound, the “potency to stimulate inositol phosphates accumulation / PLCβ activation compared with GnRH I (in words)” value with rat GnRH receptor [3] is “features intermediate between GnRH I and [Tyr8]GnRH I”; with human GnRH receptor it was “features intermediate between GnRH I and [Tyr8]GnRH I”. Also, the “antiproliferative/apoptotic potency compared with GnRH I (in words)” value in the series with HEK293/rGnRHR cells and in the series with HEK293/hGnRHR cells was “more potent to inhibit cell growth than GnRH I” each time.
For “[Trp7]GnRH I: GnRH I with Leu7 replaced by Trp7 of GnRH II (QHWSYGWRPG; Gonadoliberin-1; UniProt P01148 24-33, looked up, variant L7W)”, the “affinity compared with GnRH I (in words)” value with rat GnRH receptor [2] was “did not modify the affinity and PLCβ activation capacity”. In addition, the “potency to stimulate inositol phosphates accumulation / PLCβ activation compared with GnRH I (in words)” value is “did not modify the affinity and PLCβ activation capacity” with rat GnRH receptor [3]; “did not modify the affinity and PLCβ activation capacity” with human GnRH receptor. Besides, the entries for the “fold more potent than GnRH I to induce cell death / inhibit cell growth” value with HEK293/rGnRHR cells and in the series on HEK293/hGnRHR cells were 9.1 fold and 19.3 fold, respectively.
